According to patent US20200246441A1, “COMPOSITIONS AND METHODS FOR AUTOIMMUNE DISEASE TREATMENT” (AMRITA VISHWA VIDYAPEETHAM, priority 2016, published 2020):
Entries after “also recorded” stand apart in the source; their conditions may differ. Non-standard residues stand in square brackets, D forms with d. No end group written: not given here. βF = beta phenylalanine (beta-amino acid)

B1: Ova: control silica nanoparticles (500 nm or 200 nm) coated with ovalbumin (conjugate)
chain: GSIGAASMEFCFDVFKELKVHHANENIFYCPIAIMSALAMVYLGAKDSTRTQINKVVRFDKLPGFGDSIEAQCGTSVNVHSSLRDILNQITKPNDVYSFSLASRLYAEERYPILPEYLQCVKELYRGGLEPINFQTAADQARELINSWVESQTNGIIRNVLQPSSVDSQTAMVLVNAIVFKGLWEKAFKDEDTQAMPFRVTEQESKPVQMMYQIGLFRVASMASEKMKILELPFASGTMSMLVLLPDEVSGLEQLESIINFEKLTEWTSSNVMEERKIKVYLPRMKMEEKYNLTSVLMAMGITDVFSSSANLSGISSAESLKISQAVHAAHAEINEAGREVVGSAEAGVDAASVSEEFRADHPFLFCIKHIATNAVLFFGRCVSP

Assays:
[1] = system: MOG-specific T-cells (spleen cells from MOG T-cell receptor transgenic (2D2) mice); assay: Proliferation assay, 3H-thymidine incorporation; type: cell-based, mouse; conditions: for T-cell proliferation (proliferative response): free peptide or 500 nm silica NPs, up to 8 ug/ml
Description: Spleens were dissected from MOG T-cell receptor transgenic mice expressing the transgenic V3.2α/Vβ11 T-cell receptor specific for MOG35-55 peptide ([…]) in the context of 1-A^b. Single cell suspensions were prepared in complete RPMI medium containing 10% heat inactivated FBS, 2 mM L-glutamine, 100 U/ml penicillin, 100 μg/ml streptomycin, 50 μM 2-mercaptoethanol and 1 mM sodium pyruvate (Sigma). Following red blood cell lysis, splenocytes were seeded in triplicate in 96-well, flat bottom microtiter plates (Nunc) at a concentration of 2.5×10^5 cells per well. Splenocytes were cultured in medium alone or in the presence of increasing doses of MOG35-55 or nanoparticles. Cells were incubated at 37° C. for 72 hr with the addition of 1 μCi/well [3H]-thymidine (Perkin Elmer) for the last 18 hr of culture. Cells were harvested onto filter mats (Perkin Elmer) and incorporated radioactive nucleic acids counted using a Top Count NXT Scintillation Counter (Packard Biosciences).

C57Bl/6 EAE mice [2] = assay: EAE induction and clinical scoring, MOG35-55-induced EAE in C57Bl/6 mice (chronic progressive model); type: in vivo, mouse; conditions: for Disease incidence / Mortality: fraction of total; for Cumulative score / Day disease onset / Maximum score / Score at termination: mean ± SEM; for daily mean clinical score compared to controls: treatment prior to induction of EAE
C57Bl/6 EAE mice [3] = assay: Histological analysis of CNS tissue of C57Bl/6 EAE mice; type: in vivo, mouse; set-up: key to Axonal damage: 0 = no axonal pathology, 3 = severe axonal pathology; key to Demyelination score: 0 = no demyelination, 3 = severe demyelination; conditions: for Axonal damage / Demyelination score / Inflammation score: mean ± SEM; for CNS inflammation, demyelination and axonal damage: 500 nm NPs, versus bare NPs or scrambled MOG37-52 NPs
Description: (§1) For histological analysis of CNS tissue, the brain and spinal cord were dissected from mice then fixed in 10% formalin (Sigma) for 24-48 h. Tissue was then processed and embedded in paraffin wax. Serial sections (5 μm) were cut from paraffin-embedded tissues and stained with hematoxylin and eosin, luxol fast blue and Bielschowsky silver impregnation to assess inflammation, demyelination and axonal damage, respectively. Sections were scored blind for semi-quantitative histological analysis of inflammation as follows: 0, no inflammation: 1, cellular infiltrate only in the perivascular areas and meninges; 2, mild cellular infiltrate in parenchyma: 3, moderate cellular infiltrate in parenchyma; 4, severe cellular infiltrate in parenchyma. Demyelination and axonal pathology were assessed by pale staining and scored blind as follows: 0, no demyelination/axonal pathology: 1, mild demyelination/axonal pathology; 2, moderate demyelination-axonal pathology; 3, severe demyelination/axonal pathology.

NOD/Lt EAE mice [4] = assay: EAE induction and clinical scoring, recombinant mouse MOG-induced EAE in NOD/Lt mice (relapsing remitting model); type: in vivo; conditions: for Disease incidence / Mortality / Cumulative score / Day disease onset / Maximum score / Score at termination: 200 nm silica peptide nanoparticles, NOD/Lt; for Disease incidence / Mortality: fraction of total; for Cumulative score / Day disease onset / Maximum score / Score at termination: mean ± SEM
NOD/Lt EAE mice [5] = assay: Histological analysis of CNS tissue of NOD/Lt EAE mice; type: in vivo, mouse; set-up: key to Axonal damage: 0 = no axonal pathology, 3 = severe axonal pathology; key to Demyelination score: 0 = no demyelination, 3 = severe demyelination; conditions: 200 nm silica peptide nanoparticles, mean ± SEM
Description: as §1

EAE = conditions: administered as free peptide; cited from earlier work
[6] = 200 nm silica peptide nanoparticles
[7] = 500 nm silica peptide nanoparticles, i.v. day -7 and -1
[8] = 500 nm silica peptide nanoparticles

Row | Molecule | T-cell proliferation (proliferative response) [1] | Disease incidence (C57Bl/6 EAE mice [2]; [6]) | Mortality (C57Bl/6 EAE mice [2]; [6]) | Cumulative score (C57Bl/6 EAE mice [2]; [6]) | Day disease onset (C57Bl/6 EAE mice [2]; [6]) | Maximum score (C57Bl/6 EAE mice [2]; [6]) | Score at termination (C57Bl/6 EAE mice [2]; [6]) | Disease incidence (C57Bl/6 EAE mice [2]; [7]) | Mortality (C57Bl/6 EAE mice [2]; [8]) | Cumulative score (C57Bl/6 EAE mice [2]; [8]) | Day disease onset (C57Bl/6 EAE mice [2]; [8]) | Maximum score (C57Bl/6 EAE mice [2]; [8]) | Score at termination (C57Bl/6 EAE mice [2]; [8]) | Axonal damage (C57Bl/6 EAE mice [3]; [6]) | Demyelination score (C57Bl/6 EAE mice [3]; [6]) | Inflammation score (C57Bl/6 EAE mice [3]; [6]) | Axonal damage (C57Bl/6 EAE mice [3]; [8]) | Demyelination score (C57Bl/6 EAE mice [3]; [8]) | Inflammation score (C57Bl/6 EAE mice [3]; [8]) | Disease incidence (NOD/Lt EAE mice [4]) | also measured
1 | MEVGWYRSPFSRVVHLYRNGK [MOG35-55, encephalitogenic mouse MOG peptide, free peptide, reference compound] | robust proliferation response |  |  |  |  |  |  |  |  |  |  |  |  |  |  |  |  |  |  |  | 
2 | MOG37-52: silica nanoparticles coated with mouse MOG37-52 peptide VGWYRSPFSRVVHLYR; 500 nm in Table 1, 200 nm in Tables 2 and 3 | comparable proliferative response; also recorded: comparable to the MOG37-52 peptide | 10/10 | 0/10 | 33.05 ± 2.086 ∧∧∧∧ | 15.70 ± 1.334 | 2.50 ± 0.1667^∧ | 1.45 ± 0.2930^∧∧∧ | 6/6 | 0/6 | 26.00 ± 8.039 ^** | 17.17 ± 2.151 | 2.00 ± 0.3873 | 1.083 ± 0.3270 | 1.35 ± 0.1833 # ^∧∧∧ | 1.85 ± 0.2242 | 2.275 ± 0.3772^∧ | 1.208 ± 0.2275 ^∧∧ | 0.833 ± 0.8333 ^** ∧∧∧∧ | 1.542 ± 0.2275 ^* ∧∧ | 6/6 | effect on clinical disease (C57Bl/6 EAE mice [2]; 200 nm NPs, C57BL/6 mice): significant effect on clinical disease; daily mean clinical score compared to controls (C57Bl/6 EAE mice [2]; 500 nm NPs): significant reduction; axonal damage compared to bear, scrambled MOG37-52 or ovalbumin nanoparticles (C57Bl/6 EAE mice [3]; 200 nm silica nanoparticles): significantly reduced axonal damage; inflammation compared to bear nanoparticles (C57Bl/6 EAE mice [3]; 200 nm silica nanoparticles): significantly reduced inflammation; CNS inflammation, demyelination and axonal damage (C57Bl/6 EAE mice [3]): reduction in CNS inflammation, demyelination and axonal damage; also recorded: significantly reduced inflammation, demyelination and axonal damage; disease severity (NOD/Lt EAE mice [4]; 200 nm NPs, NOD/Lt mice): significantly reduced disease severity; Mortality (NOD/Lt EAE mice [4]): 0/6; Cumulative score (NOD/Lt EAE mice [4]): 30.50 ± 3.266^∧∧ ^##; Day disease onset (NOD/Lt EAE mice [4]): 17.33 ± 2.23; Maximum score (NOD/Lt EAE mice [4]): 2.667 ± 0.1667^∧; Score at termination (NOD/Lt EAE mice [4]): 2.25 ± 0.2814^∧; Axonal damage (NOD/Lt EAE mice [5]): 2.833 ± 0.1667; Demyelination score (NOD/Lt EAE mice [5]): 2.917 ± 0.0833; Inflammation score (NOD/Lt EAE mice [5]): 4.167 ± 0.1667; proliferative response ([1]; 200 nm NPs): did not induce a proliferative response that was above background levels
3 | MOG44BF: 500 nm silica nanoparticles coated with MOG44βF peptide VGWYRSPβFSRVVHLYR (VGWYRSP[βF]SRVVHLYR; also: coated on 500 nm silica nanoparticles) |  |  |  |  |  |  |  | 2/6 | 0/6 | 5.417 ± 3.967 ^**** ∧∧∧ | 29.17 ± 3.710^++ ^### *** ∧∧∧ | 0.4167 ± 0.3270^++ ^*** ∧∧∧ | 0.1667 ± 0.1054 # ^∧ |  |  |  | 0.5833 ± 0.2007 ∧∧∧∧ | 0.375 ± 0.08539^### *** ∧∧∧∧ | 0.7917 ± 0.2694^### *** ∧∧∧∧ |  | therapeutic effect compared to MOG37-52 coated NPs (onset, disease severity) (C57Bl/6 EAE mice [2]; 500 nm NPs): more significant therapeutic effect; daily mean clinical score compared to controls (C57Bl/6 EAE mice [2]; 500 nm NPs): significant reduction; CNS inflammation, demyelination and axonal damage (C57Bl/6 EAE mice [3]): reduction in CNS inflammation, demyelination and axonal damage; also recorded: significantly reduced inflammation, demyelination and axonal damage; T-cell proliferation (proliferative response) ([1]; listed as MOG440F): not capable of stimulating T-cell proliferation; T-cell proliferation (proliferative response) ([1]; listed as MOG441F): did not induce a robust proliferative response
4 | ScrMOG37-52: control silica nanoparticles (500 nm or 200 nm) coated with scrambled MOG37-52 peptide RSVLVPSRWRHFYGVY [reference compound] | not capable of stimulating T-cell proliferation | 8/8 | 0/8 | 52.50 ± 4.621 | 13.38 ± 0.9051 | 3.313 ± 0.2825 | 2.313 ± 0.4525 | 6/6 | 0/6 | 52.5 ± 2.053 | 12.67 ± 0.4216 | 3.00 ± 0.0000 | 1.833 ± 0.2108 | 2.188 ± 0.2302 | 2.063 ± 0.2745 | 2.688 ± 0.3889 | 2.367 ± 0.2472 | 2.333 ± 0.2108 | 2.917 ± 0.2007 | 6/6 | Mortality (NOD/Lt EAE mice [4]): 0/6; Cumulative score (NOD/Lt EAE mice [4]): 58.5 ± 2.772; Day disease onset (NOD/Lt EAE mice [4]): 13.00 ± 0.4472; Maximum score (NOD/Lt EAE mice [4]): 3.583 ± 0.3005; Score at termination (NOD/Lt EAE mice [4]): 3.333 ± 0.3333; Axonal damage (NOD/Lt EAE mice [5]): 2.583 ± 0.2007; Demyelination score (NOD/Lt EAE mice [5]): 2.583 ± 0.2007; Inflammation score (NOD/Lt EAE mice [5]): 3.583 ± 0.2713
5 | VGWYRSPβFSRVVHLYR [MOG 44βF] |  |  |  |  |  |  |  |  |  |  |  |  |  |  |  |  |  |  |  |  | dosage at which free peptide suppressed EAE (EAE): 800 µg
6 | B1 | not capable of stimulating T-cell proliferation | 5/5 | 0/5 | 62.00 ± 4.987 | 10.60 ± 0.9274 | 3.3 ± 0.2000 | 2.60 ± 0.3317 | 4/4 | 1/4 | 69.38 ± 11.77 | 10.75 ± 0.8539 | 3.625 ± 0.4732 | 2.75 ± 0.7773 | 2.50 ± 0.2236 | 2.40 ± 0.3674 | 2.80 ± 0.4899 | 2.333 ± 0.1667 | 2.333 ± 0.1667 | 2.833 ± 0.1667 | 6/6 | Mortality (NOD/Lt EAE mice [4]): 1/6; Cumulative score (NOD/Lt EAE mice [4]): 46.75 ± 4.656; Day disease onset (NOD/Lt EAE mice [4]): 14.17 ± 1.327; Maximum score (NOD/Lt EAE mice [4]): 3.583 ± 0.3005; Score at termination (NOD/Lt EAE mice [4]): 3.167 ± 0.4014; Axonal damage (NOD/Lt EAE mice [5]): 2.60 ± 0.1871; Demyelination score (NOD/Lt EAE mice [5]): 2.60 ± 0.1871; Inflammation score (NOD/Lt EAE mice [5]): 4.00 ± 0.00
